From patent US20230233541A1, “SUBSTITUTED BENZAMIDES AS MODULATORS OF TREX1” (Constellation Pharmaceuticals, Inc., priority 2020, published 2023)

Experiments:
[1] = biological target: T1, human TREX2 (residues M44-A279) (Homo sapiens, UniProt Q9BQ50); test: TREX2 Biochemical Assay (fluorescence assay, degradation of dsDNA substrate); settings: 2.5 nM TREX2, 60 nM dsDNA substrate, 25 minutes at room temperature; read-out: hTREX2 EC50
T1 construct: human TREX2 (residues M44-A279, expressed in E. coli); His-Tev (His tag with TEV protease site) (N); made in house; host or cells: E. coli
T1 sequence (Q9BQ50 44-279 isoform Q9BQ50-1): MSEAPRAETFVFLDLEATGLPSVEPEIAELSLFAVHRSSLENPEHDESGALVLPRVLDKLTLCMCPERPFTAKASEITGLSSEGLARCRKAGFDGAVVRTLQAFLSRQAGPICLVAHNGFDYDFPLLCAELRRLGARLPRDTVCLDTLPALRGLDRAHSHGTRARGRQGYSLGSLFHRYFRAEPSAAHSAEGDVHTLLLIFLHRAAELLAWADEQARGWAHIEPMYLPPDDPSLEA
Description: Degradation of the dsDNA liberates free fluorophore to produce a fluorescent signal. Specifically, 7.5 μL of N-terminally His-Tev tagged human TREX2 (residues M44-A279, expressed in E. coli and purified in house) in reaction buffer (50 mM Tris (pH 7.4), 150 mM NaCl, 2 mM DTT, 0.1 mg/mL BSA, 0.01% (v/v) Tween-20 and 100 mM MgCl2) was added to a 384-well Black ProxiPlate Plus (Perkin Elmer) which already contained compound (150 nL) at varying concentrations as a 10-point dose-response in DMSO. To this was added 7.5 μL of dsDNA substrate (Strand A: 5′ TEX615/GCT AGG CAG 3′; Strand B: 5′ CTG CCT AGC/IAbRQSp (IDT)) in reaction buffer. Final concentrations were 2.5 nM TREX2, 60 nM dsDNA substrate in reaction buffer with 1.0% DMSO (v/v). After 25 minutes at room temperature, reactions were quenched by the addition of 5 μL of stop buffer (same as reaction buffer plus 200 mM EDTA). Final concentrations in the quenched reaction mixture were […] TREX2, 45 nM DNA and 50 mM EDTA in a volume of 20 μL. After a 5-minute incubation at room temperature, plates were read in a laser sourced Envision (Perkin-Elmer), measuring fluorescence at 615 nm following excitation w/570 nm light. IC50 values were calculated by comparing the measured fluorescence at 615 nm ratio relative to control wells pre-quenched w/stop buffer (100% inhibition) and no inhibitor (0% inhibition) controls as using non-linear least square four parameter fits and either Genedata or GraphPad Prism (GraphPad Software, Inc.).

[2] = biological target: T2, full length human TREX1 (Homo sapiens, UniProt Q9NSU2); test: TREX1 Biochemical Assay (fluorescence assay, degradation of dsDNA substrate); settings: 150 pM TREX1, 60 nM dsDNA substrate, 25 minutes at room temperature; read-out: hTREX1 EC50
T2 construct: N-terminally His-Tev tagged full length human TREX1; His-Tev (His tag with TEV protease site) (N); made in house; host or cells: E. coli
T2 sequence (Q9NSU2 1-314): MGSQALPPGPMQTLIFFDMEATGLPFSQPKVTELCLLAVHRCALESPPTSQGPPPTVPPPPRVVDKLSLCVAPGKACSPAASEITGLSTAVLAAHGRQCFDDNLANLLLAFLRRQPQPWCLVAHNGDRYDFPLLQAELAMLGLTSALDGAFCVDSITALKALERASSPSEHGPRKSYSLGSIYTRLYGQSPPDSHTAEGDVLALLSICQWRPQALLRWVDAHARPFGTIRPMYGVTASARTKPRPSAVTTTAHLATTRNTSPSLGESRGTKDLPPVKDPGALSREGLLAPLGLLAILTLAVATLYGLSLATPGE
Description: Degradation of the dsDNA liberates free fluorophore to produce a fluorescent signal. Specifically, 7.5 μL of N-terminally His-Tev tagged full length human TREX1 (expressed in E. coli and purified in house) in reaction buffer (50 mM Tris (pH 7.4), 150 mM NaCl, 2 mM DTT, 0.1 mg/mL BSA, 0.01% (v/v) Tween-20 and 100 mM MgCl2) was added to a 384-well Black ProxiPlate Plus (Perkin Elmer) which already contained compound (150 nL) at varying concentrations as a 10-point dose-response in DMSO. To this was added 7.5 μL of dsDNA substrate (Strand A: 5′ TEX615/GCT AGG CAG 3′; Strand B: 5′ CTG CCT AGC/IAbRQSp (Integrated DNA Technologies)) in reaction buffer. Final concentrations were 150 pM TREX1, 60 nM dsDNA substrate in reaction buffer with 1.0% DMSO (v/v). After 25 minutes at room temperature, reactions were quenched by the addition of 5 μL of stop buffer (same as reaction buffer plus 200 mM EDTA). Final concentrations in the quenched reaction were 112.5 pM TREX1, 45 nM DNA and 50 mM EDTA in a volume of 20 μL. After a 5-minute incubation at room temperature, plates were read in a laser sourced Envision (Perkin-Elmer), measuring fluorescence at 615 nm following excitation w/570 nm light. IC50 values were calculated by comparing the measured fluorescence at 615 nm ratio relative to control wells pre-quenched w/stop buffer (100% inhibition) and no inhibitor (0% inhibition) controls as using non-linear least square four parameter fits and either Genedata or GraphPad Prism (GraphPad Software, Inc.).

EC50 [1] [µM]	EC50 [2] [µM]	SMILES
> 100	> 10	O=C(c1ccc(CO)cc1)N(Cc1cccnc1)Cc1ccc(Cl)cc1Cl [Compound 83]
> 100	> 10	O=C(c1ccc(CO)cc1F)N(Cc1cccnc1)Cc1ccc(Cl)cc1Cl [Compound 84]
> 100	> 10	CC(C)c1ccc(C(=O)N(Cc2cccnc2)Cc2ccc(Cl)cc2Cl)cc1 [Compound 85]
> 100	> 10	O=C(C1CCC(O)CC1)N(Cc1cccnc1)Cc1ccc(Cl)cc1Cl (stereo not drawn) [Compound 86]
> 100	> 10	COc1cc(Br)cc(C(=O)N(Cc2cccnc2)Cc2ccc(Cl)cc2Cl)c1 [Compound 87]
> 100	> 10	CCC(=O)N(Cc1cccnc1)Cc1ccc(Cl)cc1Cl [Compound 88]
> 100	> 10	O=C(C1CCOCC1)N(Cc1cccnc1)Cc1ccc(Cl)cc1Cl [Compound 89]
> 100	> 10	CC(C)Oc1ccc(C(=O)N(Cc2cccnc2)Cc2ccc(Cl)cc2Cl)cc1 [Compound 90]
> 100	> 10	O=C(CN1CCCC1)N(Cc1cccnc1)Cc1ccc(Cl)cc1Cl [Compound 91]
> 100	> 10	COCC(=O)N(Cc1cccnc1)Cc1ccc(Cl)cc1Cl [Compound 92]
> 100	> 10	O=C(CCCCc1ccccc1)N(Cc1cccnc1)Cc1ccc(Cl)cc1Cl [Compound 93]
> 100	> 10	O=C(Cc1ccccc1)N(Cc1cccnc1)Cc1ccc(Cl)cc1Cl [Compound 94]
> 100	> 10	O=C(c1cccc(F)c1)N(Cc1ccccn1)Cc1ccc(Cl)cc1Cl [Compound 95]
> 100	> 10	O=C(c1cccc(F)c1)N(Cc1ccccc1)Cc1ccc(Cl)cc1Cl [Compound 96]
> 100	> 10	O=C(c1cccc(F)c1)N(Cc1ccncc1)Cc1ccc(Cl)cc1Cl [Compound 97]
> 100	> 10	O=C(c1ccc(F)cc1)N(Cc1cccnc1)Cc1ccc(Cl)cc1Cl [Compound 98]
> 100	> 10	O=C(c1ccc(F)cn1)N(Cc1cccnc1)Cc1ccc(Cl)cc1Cl [Compound 99]
> 100	> 10	O=C(c1cncnc1)N(Cc1cccnc1)Cc1ccc(Cl)cc1Cl [Compound 100]
> 100	1 to 10	O=C(c1ccc(F)c(F)c1)N(Cc1cccnc1)Cc1ccc(Cl)cc1Cl [Compound 101]
> 100	> 10	O=C(c1ncccn1)N(Cc1cccnc1)Cc1ccc(Cl)cc1Cl [Compound 102]
> 100	> 10	N#Cc1ccc(C(=O)N(Cc2cccnc2)Cc2ccc(Cl)cc2Cl)cc1 [Compound 103]
> 100	> 10	Cc1ncc(C(=O)N(Cc2cccnc2)Cc2ccc(Cl)cc2Cl)cn1 [Compound 104]
> 100	> 10	O=C(c1cccc(F)c1)N(Cc1ccc(C(F)(F)F)nc1)Cc1ccc(Cl)cc1Cl [Compound 105]
> 100	1 to 10	O=C(c1cccc(F)c1)N(Cc1cncnc1)Cc1ccc(Cl)cc1Cl [Compound 106]

EC50 [1] [µM]	EC50 [2] [µM]	SMILES
> 100	> 10	O=C(c1cccc(F)c1)N(Cc1cccnn1)Cc1ccc(Cl)cc1Cl [Compound 107]
> 100	> 10	Cc1ncc(CN(Cc2ccc(Cl)cc2Cl)C(=O)c2cccc(F)c2)cn1 [Compound 108]
> 100	> 10	O=C(c1cccc(F)c1)N(Cc1cnc2ccccc2c1)Cc1ccc(Cl)cc1Cl [Compound 109]
> 100	> 10	Cc1ccc(CN(Cc2ccc(Cl)cc2Cl)C(=O)c2cccc(F)c2)cn1 [Compound 110]
> 100	1 to 10	O=C(c1cccc(F)c1)N(Cc1cnccn1)Cc1ccc(Cl)cc1Cl [Compound 111]
> 100	> 10	Cn1cc(CN(Cc2ccc(Cl)cc2Cl)C(=O)c2cccc(F)c2)cn1 [Compound 112]
> 100	> 10	O=C(c1cocn1)N(Cc1cccnc1)Cc1ccc(Cl)cc1Cl [Compound 113]
> 100	> 10	O=C(c1cnon1)N(Cc1cccnc1)Cc1ccc(Cl)cc1Cl [Compound 114]
> 100	> 10	Cc1noc(C)c1C(=O)N(Cc1cccnc1)Cc1ccc(Cl)cc1Cl [Compound 115]
> 100	> 10	Cc1nonc1C(=O)N(Cc1cccnc1)Cc1ccc(Cl)cc1Cl [Compound 116]
> 100	> 10	O=C(c1cnco1)N(Cc1cccnc1)Cc1ccc(Cl)cc1Cl [Compound 117]
> 100	> 10	O=C(c1ccon1)N(Cc1cccnc1)Cc1ccc(Cl)cc1Cl [Compound 118]
10 to 100	0.1 to 1	O=C(c1cc(F)c(F)c(F)c1)N(Cc1cccnc1)Cc1ccc(Cl)cc1Cl [Compound 119]
> 100	> 10	O=C(c1cc(F)c(F)cc1F)N(Cc1cccnc1)Cc1ccc(Cl)cc1Cl [Compound 120]
10 to 100	0.1 to 1	O=C(c1cc(F)cc(F)c1)N(Cc1cccnc1)Cc1ccc(Cl)cc1Cl [Compound 121]
> 100	> 10	O=C(c1cc(F)ccc1F)N(Cc1cccnc1)Cc1ccc(Cl)cc1Cl [Compound 122]
> 100	1 to 10	O=C(c1ccc(F)c(F)c1F)N(Cc1cccnc1)Cc1ccc(Cl)cc1Cl [Compound 123]
> 100	1 to 10	O=C(c1cccc(F)c1F)N(Cc1cccnc1)Cc1ccc(Cl)cc1Cl [Compound 124]
> 100	> 10	COc1ccccc1CN(Cc1cccnc1)C(=O)c1cccc(F)c1 [Compound 125]
> 100	> 10	Cn1ncc2cc(CN(Cc3cccnc3)C(=O)c3cccc(F)c3)ccc21 [Compound 126]
> 100	1 to 10	COc1cccc(CN(Cc2cccnc2)C(=O)c2cccc(F)c2)c1Cl [Compound 127]
> 100	1 to 10	Cn1ncc2ccc(CN(Cc3cccnc3)C(=O)c3cccc(F)c3)cc21 [Compound 128]
> 100	> 10	O=C(c1cccc(F)c1)N(Cc1cccnc1)Cc1ccccc1F [Compound 129]
10 to 100	1 to 10	O=C(c1cccc(F)c1)N(Cc1cccnc1)Cc1c(F)cccc1Cl [Compound 130]
